Source: patent US20180000085A1, “USE OF PICOLINAMIDE COMPOUNDS WITH FUNGICIDAL ACTIVITY” (DOW AGROSCIENCES LLC, priority 2014, published 2018)

How the values were obtained:
Type in all cases: in vivo
Zymoseptoria tritici = experiment: Leaf blotch of wheat (SEPTTR) disease control on wheat seedlings; set-up: key to SEPTTR 1DP, HV activity at 100 ppm (% control rating) / SEPTTR 3DC, HV activity at 100 ppm (% control rating) / SEPTTR disease control, 1DP / SEPTTR disease control, 3DC / SEPTTR 1DP disease control rating, HV activity / SEPTTR 3DC disease control rating, HV activity / SEPTTR 3DC, LV activity at 125.1 g/H (% Control rating) / SEPTTR 1DP, LV activity at 125.1 g/H (% Control rating) / SEPTTR 1DP disease control rating, LV activity at 125.1 g/H / SEPTTR 3DC disease control rating, LV activity at 125.1 g/H / SEPTTR 3DC disease control rating, HV activity at 100 ppm / SEPTTR 1DP disease control rating, HV activity at 100 ppm / HV activity at 100 ppm SEPTTR 3DC (disease control rating) / HV activity at 100 ppm SEPTTR 1DP (disease control rating) / LV activity at 125.1 g/H SEPTTR 1DP (disease control rating) / LV activity at 125.1 g/H SEPTTR 3DC (disease control rating): A: > 80; B: ≤ 80; C: Not Tested; D: No Activity Observed in the Reported Assay; settings: low volume application, 125.1 g/H; for SEPTTR 1DP disease control rating, LV activity at 125.1 g/H: 1 day protectant; for SEPTTR 3DC disease control rating, LV activity at 125.1 g/H: 3 day curative
Puccinia triticina = experiment: Wheat brown rust (PUCCRT) disease control on wheat seedlings; settings: low volume application, 125.1 g/H; for PUCCRT 1DP disease control rating, LV activity at 125.1 g/H: 1 day protectant; for PUCCRT 3DC disease control rating, LV activity at 125.1 g/H: 3 day curative
Phakopsora pachyrhizi = experiment: Asian soybean rust (PHAKPA) disease control; set-up: key: A: > 80; B: ≤ 80; C: Not Tested; D: No Activity Observed in the Reported Assay; settings: 25 ppm; for PHAKPA disease control, 1DP: 1 Day Protectant; for PHAKPA disease control, 3DC: 3 Day Curative

CCC(CC)[C@H](Oc1ccc(Cl)cc1)[C@H](C)OC(=O)[C@H](C)NC(=O)c1nccc(OC)c1OCOC(C)=O [Cmpd 669]
SEPTTR 1DP disease control rating, LV activity at 125.1 g/H (Zymoseptoria tritici): A (> 80) | SEPTTR 3DC disease control rating, LV activity at 125.1 g/H (Zymoseptoria tritici): A (> 80) | PUCCRT 1DP disease control rating, LV activity at 125.1 g/H (Puccinia triticina): A (> 80) | PUCCRT 3DC disease control rating, LV activity at 125.1 g/H (Puccinia triticina): A (> 80) | PHAKPA disease control, 1DP (Phakopsora pachyrhizi): A (> 80) | PHAKPA disease control, 3DC (Phakopsora pachyrhizi): B (≤ 80)

CCC(CC)[C@H](Oc1ccc(Cl)cc1Cl)[C@H](C)OC(=O)[C@H](C)NC(=O)c1nccc(OC)c1OCOC(C)=O [Cmpd 670]
SEPTTR 1DP disease control rating, LV activity at 125.1 g/H (Zymoseptoria tritici): A (> 80) | SEPTTR 3DC disease control rating, LV activity at 125.1 g/H (Zymoseptoria tritici): A (> 80) | PUCCRT 1DP disease control rating, LV activity at 125.1 g/H (Puccinia triticina): A (> 80) | PUCCRT 3DC disease control rating, LV activity at 125.1 g/H (Puccinia triticina): A (> 80) | PHAKPA disease control, 1DP (Phakopsora pachyrhizi): B (≤ 80) | PHAKPA disease control, 3DC (Phakopsora pachyrhizi): B (≤ 80)

C=CC(C)C(Oc1ccccc1)C(C)OC(=O)C(C)NC(=O)c1nccc(OC)c1OC(C)=O (stereo not drawn) [Cmpd 693]
SEPTTR 1DP disease control rating, LV activity at 125.1 g/H (Zymoseptoria tritici): B (≤ 80) | SEPTTR 3DC disease control rating, LV activity at 125.1 g/H (Zymoseptoria tritici): A (> 80) | PUCCRT 1DP disease control rating, LV activity at 125.1 g/H (Puccinia triticina): A (> 80) | PUCCRT 3DC disease control rating, LV activity at 125.1 g/H (Puccinia triticina): A (> 80) | PHAKPA disease control, 1DP (Phakopsora pachyrhizi): A (> 80) | PHAKPA disease control, 3DC (Phakopsora pachyrhizi): B (≤ 80)

CCC[C@@H](Oc1ccccc1)[C@H](C)OC(=O)[C@H](C)NC(=O)c1nccc(OC)c1OC(C)=O [Cmpd 696]
SEPTTR 1DP disease control rating, LV activity at 125.1 g/H (Zymoseptoria tritici): A (> 80) | SEPTTR 3DC disease control rating, LV activity at 125.1 g/H (Zymoseptoria tritici): A (> 80) | PUCCRT 1DP disease control rating, LV activity at 125.1 g/H (Puccinia triticina): A (> 80) | PUCCRT 3DC disease control rating, LV activity at 125.1 g/H (Puccinia triticina): A (> 80) | PHAKPA disease control, 1DP (Phakopsora pachyrhizi): A (> 80) | PHAKPA disease control, 3DC (Phakopsora pachyrhizi): A (> 80)

COc1ccnc(C(=O)N[C@@H](C)C(=O)O[C@@H](C)[C@H](OCC2CC2)c2cccc(-c3ccccc3)c2)c1OCOC(C)=O [Cmpd 873]
SEPTTR 1DP disease control rating, LV activity at 125.1 g/H (Zymoseptoria tritici): B (≤ 80) | SEPTTR 3DC disease control rating, LV activity at 125.1 g/H (Zymoseptoria tritici): A (> 80) | PUCCRT 1DP disease control rating, LV activity at 125.1 g/H (Puccinia triticina): A (> 80) | PUCCRT 3DC disease control rating, LV activity at 125.1 g/H (Puccinia triticina): A (> 80) | PHAKPA disease control, 1DP (Phakopsora pachyrhizi): A (> 80) | PHAKPA disease control, 3DC (Phakopsora pachyrhizi): B (≤ 80)

COc1ccnc(C(=O)N[C@@H](C)C(=O)O[C@@H](C)[C@H](OCC(C)C)c2ccccc2)c1OC(C)=O [Cmpd 879]
SEPTTR 1DP disease control rating, LV activity at 125.1 g/H (Zymoseptoria tritici): B (≤ 80) | SEPTTR 3DC disease control rating, LV activity at 125.1 g/H (Zymoseptoria tritici): A (> 80) | PUCCRT 1DP disease control rating, LV activity at 125.1 g/H (Puccinia triticina): A (> 80) | PUCCRT 3DC disease control rating, LV activity at 125.1 g/H (Puccinia triticina): A (> 80) | PHAKPA disease control, 1DP (Phakopsora pachyrhizi): A (> 80) | PHAKPA disease control, 3DC (Phakopsora pachyrhizi): B (≤ 80)

CCCO[C@H](c1ccccc1)[C@H](C)OC(=O)[C@H](C)NC(=O)c1nccc(OC)c1OC(C)=O [Cmpd 884]
SEPTTR 1DP disease control rating, LV activity at 125.1 g/H (Zymoseptoria tritici): B (≤ 80) | SEPTTR 3DC disease control rating, LV activity at 125.1 g/H (Zymoseptoria tritici): A (> 80) | PUCCRT 1DP disease control rating, LV activity at 125.1 g/H (Puccinia triticina): A (> 80) | PUCCRT 3DC disease control rating, LV activity at 125.1 g/H (Puccinia triticina): A (> 80) | PHAKPA disease control, 1DP (Phakopsora pachyrhizi): A (> 80) | PHAKPA disease control, 3DC (Phakopsora pachyrhizi): D

COc1ccnc(C(=O)N[C@@H](C)C(=O)O[C@@H](C)[C@@H](OC)c2ccccc2)c1OCOC(C)=O [Cmpd 886]
SEPTTR 1DP disease control rating, LV activity at 125.1 g/H (Zymoseptoria tritici): D | SEPTTR 3DC disease control rating, LV activity at 125.1 g/H (Zymoseptoria tritici): A (> 80) | PUCCRT 1DP disease control rating, LV activity at 125.1 g/H (Puccinia triticina): A (> 80) | PUCCRT 3DC disease control rating, LV activity at 125.1 g/H (Puccinia triticina): A (> 80) | PHAKPA disease control, 1DP (Phakopsora pachyrhizi): B (≤ 80) | PHAKPA disease control, 3DC (Phakopsora pachyrhizi): B (≤ 80)

COc1ccnc(C(=O)NC(C)C(=O)OC(C)C(Oc2ccccc2)C2CCCCC2)c1OC(C)=O (stereo not drawn) [Cmpd 908]
SEPTTR 1DP disease control rating, LV activity at 125.1 g/H (Zymoseptoria tritici): A (> 80) | SEPTTR 3DC disease control rating, LV activity at 125.1 g/H (Zymoseptoria tritici): A (> 80) | PUCCRT 1DP disease control rating, LV activity at 125.1 g/H (Puccinia triticina): A (> 80) | PUCCRT 3DC disease control rating, LV activity at 125.1 g/H (Puccinia triticina): A (> 80) | PHAKPA disease control, 1DP (Phakopsora pachyrhizi): A (> 80) | PHAKPA disease control, 3DC (Phakopsora pachyrhizi): B (≤ 80)

COc1ccnc(C(=O)NC(C)C(=O)OC(C)C(Oc2cccc(F)c2)C2CCCC2)c1OCOC(C)=O (stereo not drawn) [Cmpd 909]
SEPTTR 1DP disease control rating, LV activity at 125.1 g/H (Zymoseptoria tritici): A (> 80) | SEPTTR 3DC disease control rating, LV activity at 125.1 g/H (Zymoseptoria tritici): A (> 80) | PUCCRT 1DP disease control rating, LV activity at 125.1 g/H (Puccinia triticina): A (> 80) | PUCCRT 3DC disease control rating, LV activity at 125.1 g/H (Puccinia triticina): A (> 80) | PHAKPA disease control, 1DP (Phakopsora pachyrhizi): A (> 80) | PHAKPA disease control, 3DC (Phakopsora pachyrhizi): B (≤ 80)
